Several values for one entry are separate records, joined by “and”; a condition that tells them apart may be missing. Equal entries are not always repeated. Toxic doses and inconclusive results are not listed. Rule as the data show it: active = T/C of 150% or more; inactive = T/C below 125%.
System: L1210 leukemia ip in BDF1 mice, survival T/C
Test: NCI In Vivo Anticancer Drug Screen. Data for tumor model L1210 Leukemia (intraperitoneal) in B6D2F1 (BDF1) mice
Conditions: endpoint: mean survival time, higher = longer survival
Procedure, shortened: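 Transplanted-tumor mice were given test agent; controls received vehicle only. Survival readings from the two groups were divided (treated over control).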

[1] = dose: 25.0 mg/kg/injection, schedule: Q01DX009 (ip), vehicle: Klucel (hydroxypropylcellulose) (HPC)
[2] = dose: 50.0 mg/kg/injection, schedule: Q01DX009 (ip), vehicle: Klucel (hydroxypropylcellulose) (HPC)
[3] = dose: 100.0 mg/kg/injection, schedule: Q01DX009 (ip), vehicle: Klucel (hydroxypropylcellulose) (HPC)
[4] = dose: 100.0 mg/kg/injection, schedule: Q04DX003 (ip), vehicle: Klucel (hydroxypropylcellulose) (HPC)
[5] = dose: 200.0 mg/kg/injection, schedule: Q04DX003 (ip), vehicle: Klucel (hydroxypropylcellulose) (HPC)
[6] = dose: 400.0 mg/kg/injection, schedule: Q04DX003 (ip), vehicle: Klucel (hydroxypropylcellulose) (HPC)
[7] = dose: 100.0 mg/kg/injection, schedule: Q01DX009 (ip), vehicle: saline with Tween-80
[8] = dose: 100.0 mg/kg/injection, schedule: Q04DX003 (ip), vehicle: saline with Tween-80
[9] = dose: 200.0 mg/kg/injection, schedule: Q01DX009 (ip), vehicle: saline with Tween-80
[10] = dose: 200.0 mg/kg/injection, schedule: Q04DX003 (ip), vehicle: saline with Tween-80
[11] = dose: 400.0 mg/kg/injection, schedule: Q01DX009 (ip), vehicle: saline with Tween-80
[12] = dose: 400.0 mg/kg/injection, schedule: Q04DX003 (ip), vehicle: saline with Tween-80
[13] = dose: 100.0 mg/kg/injection, schedule: Q04DX002 (ip), vehicle: saline with Tween-80
[14] = dose: 200.0 mg/kg/injection, schedule: Q04DX002 (ip), vehicle: saline with Tween-80
[15] = dose: 400.0 mg/kg/injection, schedule: Q04DX002 (ip), vehicle: saline with Tween-80
[16] = dose: 25.0 mg/kg/injection, schedule: Q01DX009 (ip), vehicle: saline with Tween-80
[17] = dose: 50.0 mg/kg/injection, schedule: Q01DX009 (ip), vehicle: saline with Tween-80
[18] = dose: 50.0 mg/kg/injection, schedule: Q04DX003 (ip), vehicle: saline with Tween-80
[19] = dose: 100.0 mg/kg/injection, schedule: Q01DX001 (ip), vehicle: Klucel (hydroxypropylcellulose) (HPC)
[20] = dose: 100.0 mg/kg/injection, schedule: Q04DX003 (ip), vehicle: other
[21] = dose: 200.0 mg/kg/injection, schedule: Q01DX001 (ip), vehicle: Klucel (hydroxypropylcellulose) (HPC)
[22] = dose: 200.0 mg/kg/injection, schedule: Q04DX003 (ip), vehicle: other
[23] = dose: 400.0 mg/kg/injection, schedule: Q01DX001 (ip), vehicle: Klucel (hydroxypropylcellulose) (HPC)
[24] = dose: 400.0 mg/kg/injection, schedule: Q04DX003 (ip), vehicle: other

Measured: T/C

O=C(Nc1ccccc1F)Oc1ccc([N+](=O)[O-])cc1
inactive: [1] 106 % of control | [2] 95 % of control | [3] 94 % of control and 112 % of control

S=C(NCc1cccc(Cl)c1)Nc1ccccc1
inactive: [1] 98 % of control | [2] 106 % of control | [3] 93 % of control

O=C(CCl)c1ccc[nH]1
inactive: dose: 50.0 mg/kg/injection, schedule: Q01DX015 (ip), vehicle: carboxymethylcellulose (CMC) 93 % of control | dose: 75.0 mg/kg/injection, schedule: Q01DX001 (ip), vehicle: carboxymethylcellulose (CMC) 93 % of control | dose: 100.0 mg/kg/injection, schedule: Q01DX015 (ip), vehicle: carboxymethylcellulose (CMC) 93 % of control

COc1ccc(OC)c(NC(=O)N(Cc2ccccc2)Cc2ccccc2)c1
inactive: [4] 93 % of control | [5] 87 % of control | [6] 88 % of control

CC(=O)CCCN1C(=O)c2ccccc2C1=O
inactive: [7] 106 % of control | [8] 101 % of control | [9] 96 % of control | [10] 91 % of control | [11] 93 % of control | [12] 102 % of control

CSC(=Nc1ccccc1)N(C)c1ccccc1
inactive: [4] 90 % of control | [5] 86 % of control | [6] 88 % of control

CC(C)(C)c1cc([N+](C)(C)C)cc(C(C)(C)C)n1
inactive: dose: 6.25 mg/kg/injection, schedule: Q01DX001 (ip), vehicle: saline 97 % of control | dose: 12.5 mg/kg/injection, schedule: Q01DX001 (ip), vehicle: saline 112 % of control | dose: 25.0 mg/kg/injection, schedule: Q01DX001 (ip), vehicle: saline 105 % of control

CCNC(=O)Nc1ccccc1
inactive: dose: 100.0 mg/kg/injection, schedule: Q04DX002 (ip), vehicle: Klucel (hydroxypropylcellulose) (HPC) 93 % of control | dose: 200.0 mg/kg/injection, schedule: Q04DX002 (ip), vehicle: Klucel (hydroxypropylcellulose) (HPC) 96 % of control

CCCCCCCCC(=O)CCCC
inactive: dose: 100.0 mg/kg/injection, schedule: Q01DX009 (ip), vehicle: saline 103 % of control | dose: 200.0 mg/kg/injection, schedule: Q01DX009 (ip), vehicle: saline 100 % of control | dose: 400.0 mg/kg/injection, schedule: Q01DX009 (ip), vehicle: saline 100 % of control

CCCCCCCCCCOP(OCCCCCCCCCC)Oc1ccccc1
inactive: dose: 100.0 mg/kg/injection, schedule: Q04DX003 (ip), vehicle: saline 102 % of control | dose: 200.0 mg/kg/injection, schedule: Q04DX003 (ip), vehicle: saline 93 % of control | dose: 400.0 mg/kg/injection, schedule: Q04DX003 (ip), vehicle: saline 102 % of control

O=C(/C=C/c1cccc2ccccc12)c1ccccc1[N+](=O)[O-]
inactive: dose: 100.0 mg/kg/injection, schedule: Q01DX001 (ip), vehicle: saline with Tween-80 96 % of control | [7] 96 % of control and 87 % of control | [13] 88 % of control | [8] 96 % of control | dose: 200.0 mg/kg/injection, schedule: Q01DX001 (ip), vehicle: saline with Tween-80 96 % of control | [9] 89 % of control and 90 % of control | [14] 90 % of control | [10] 90 % of control | dose: 400.0 mg/kg/injection, schedule: Q01DX001 (ip), vehicle: saline with Tween-80 91 % of control | [11] 86 % of control and 90 % of control | [15] 88 % of control and 90 % of control | [12] 91 % of control

OC(CCN1CCCCC1)(c1ccccc1)C1CCCC1 (configuration not stated)
inactive: dose: 6.25 mg/kg/injection, schedule: Q01DX009 (ip), vehicle: Klucel (hydroxypropylcellulose) (HPC) 114 % of control | dose: 12.5 mg/kg/injection, schedule: Q01DX009 (ip), vehicle: Klucel (hydroxypropylcellulose) (HPC) 100 % of control | [1] 94 % of control | dose: 25.0 mg/kg/injection, schedule: Q04DX003 (ip), vehicle: Klucel (hydroxypropylcellulose) (HPC) 100 % of control | [2] 97 % of control | dose: 50.0 mg/kg/injection, schedule: Q04DX003 (ip), vehicle: Klucel (hydroxypropylcellulose) (HPC) 96 % of control | [3] 97 % of control | [4] 96 % of control

OC1CC2CCC(C2)C1(O)c1ccccc1 (configuration not stated)
inactive: [4] 93 % of control | [5] 117 % of control | [6] 93 % of control

CC(C)=CCC/C(C)=C/CNC(=O)/C=C/C(=O)O
inactive: [16] 98 % of control | [17] 93 % of control | [18] 91 % of control | [7] 100 % of control and 90 % of control | [8] 94 % of control and 98 % of control | [9] 105 % of control | [10] 86 % of control | [11] 94 % of control | [12] 97 % of control

O=C(c1ccc(F)cc1)C(F)(F)F
inactive: [19] 95 % of control and 101 % of control | [20] 104 % of control | [21] 103 % of control | [22] 108 % of control | [23] 95 % of control and 101 % of control | [24] 94 % of control

CC(C)c1ccc(/C=C\C(=O)c2ccc(-c3ccccc3)cc2)cc1
inactive: [7] 103 % of control | [13] 86 % of control | [9] 106 % of control | [14] 101 % of control | [15] 101 % of control

O=C(O)CNC(=S)SCc1ccccc1
inactive: dose: 100.0 mg/kg/injection, schedule: Q04DX002 (ip), vehicle: gum acacia 97 % of control | dose: 200.0 mg/kg/injection, schedule: Q04DX002 (ip), vehicle: gum acacia 87 % of control | dose: 400.0 mg/kg/injection, schedule: Q04DX002 (ip), vehicle: gum acacia 97 % of control

CCCCCCCCC(=O)N1CC(C)OC(C)C1 (configuration not stated)
inactive: [3] 120 % of control | [20] 118 % of control | dose: 200.0 mg/kg/injection, schedule: Q01DX009 (ip), vehicle: Klucel (hydroxypropylcellulose) (HPC) 87 % of control | [22] 109 % of control | dose: 400.0 mg/kg/injection, schedule: Q01DX009 (ip), vehicle: Klucel (hydroxypropylcellulose) (HPC) 94 % of control | [24] 104 % of control

C[C@]12CC[C@H]3[C@@H](CCC4=CC(=O)CC[C@@]43C)[C@@H]1CC[C@@H]2OC(=O)Cc1ccc(N(CCCl)CCCl)cc1
inactive: dose: 100.0 mg/kg/injection, schedule: Q01DX001 (sc), vehicle: steriod suspending solution 94 % of control | dose: 200.0 mg/kg/injection, schedule: Q01DX001 (sc), vehicle: steriod suspending solution 96 % of control | dose: 400.0 mg/kg/injection, schedule: Q01DX001 (sc), vehicle: steriod suspending solution 91 % of control

CC1CC(C)CC(C(O)C2CCCCC2)C1 (configuration not stated)
inactive: dose: 75.0 mg/kg/injection, schedule: Q01DX001 (ip), vehicle: other 101 % of control | dose: 150.0 mg/kg/injection, schedule: Q01DX001 (ip), vehicle: other 106 % of control

CCOC(=O)c1cnc(C)nc1NCc1ccccc1
inactive: [19] 101 % of control | [21] 103 % of control | [23] 113 % of control

CCC1OCC(C(Cl)CCl)O1 (configuration not stated)
inactive: dose: 100.0 mg/kg/injection, schedule: Q01DX009 (ip), vehicle: saline sonified 99 % of control

CC1(C)OC2OC(C(O)c3cn(-c4ccccc4)nn3)C(O)C2O1 (configuration not stated)
inactive: [13] 97 % of control | [14] 93 % of control | [15] 110 % of control

Nc1c(C(=O)O)cc(Br)c2c1C(=O)c1ccccc1C2=O
inactive: [4] 97 % of control | [5] 95 % of control

NC(=O)C(c1ccccc1)C(O)c1ccccc1 (configuration not stated)
inactive: dose: 50.0 mg/kg/injection, schedule: Q01DX001 (ip), vehicle: saline 101 % of control | dose: 100.0 mg/kg/injection, schedule: Q01DX001 (ip), vehicle: saline 95 % of control | dose: 200.0 mg/kg/injection, schedule: Q01DX001 (ip), vehicle: saline 97 % of control | dose: 400.0 mg/kg/injection, schedule: Q01DX001 (ip), vehicle: saline 101 % of control

Cc1nc(N)c(N)nc1C
inactive: dose: 12.5 mg/kg/injection, schedule: Q01DX009 (ip), vehicle: saline with Tween-80 112 % of control | [16] 101 % of control | dose: 25.0 mg/kg/injection, schedule: Q04DX003 (ip), vehicle: saline with Tween-80 106 % of control | [17] 101 % of control | [18] 101 % of control

Source: PubChem BioAssay AID248 (DTP/NCI, 2004)
